Values after ≈ are worked out from the molar mass of the structure shown. Active and inactive are the calls of the source. The calls are words filed in the database; no cut-off is given here.
Experiments:
Enterococcus faecalis = test: Antibacterial activity against Enterococcus faecalis ATCC 35550 assessed as reduction in bacterial growth measured after 18 to 24 hrs by broth microdilution method; type: functional; conditions: time 18-24 hrs
Bacillus subtilis = test: Antibacterial activity against Bacillus subtilis IITKSM1 assessed as reduction in bacterial growth measured after 18 to 24 hrs by broth microdilution method; type: functional; conditions: time 18-24 hrs
Staphylococcus aureus [1] = test: Antibacterial activity against Staphylococcus aureus ATCC 29213 assessed as reduction in bacterial growth measured after 18 to 24 hrs by broth microdilution method; type: functional; conditions: time 18-24 hrs
Klebsiella pneumoniae = test: Antibacterial activity against Klebsiella pneumoniae BAA 1705 assessed as reduction in bacterial growth measured after 18 to 24 hrs by broth microdilution method; type: functional; conditions: time 18-24 hrs
Acinetobacter baumannii = test: Antibacterial activity against Acinetobacter baumannii BAA 1605 assessed as reduction in bacterial growth measured after 18 to 24 hrs by broth microdilution method; type: functional; conditions: time 18-24 hrs
Pseudomonas aeruginosa = test: Antibacterial activity against Pseudomonas aeruginosa ATCC 27853 assessed as reduction in bacterial growth measured after 18 to 24 hrs by broth microdilution method; type: functional; conditions: time 18-24 hrs
Escherichia coli = test: Antibacterial activity against Escherichia coli ATCC 25922 assessed as reduction in bacterial growth measured after 18 to 24 hrs by broth microdilution method; type: functional; conditions: time 18-24 hrs
[2] = Solubility of the compound in distilled water; type: physicochemical; conditions: buffer
[3] = Solubility of the compound in DMSO/DMF; type: physicochemical
Staphylococcus aureus [4] = test: Antibacterial activity against methicillin-sensitive Staphylococcus aureus ATCC 29213 assessed as reduction in bacterial growth measured after 18 to 24 hrs by broth microdilution method; type: functional; conditions: time 18-24 hrs
Staphylococcus aureus [5] = test: Antibacterial activity against methicillin-resistant Staphylococcus aureus NRS 100 assessed as reduction in bacterial growth measured after 18 to 24 hrs by broth microdilution method; type: functional; conditions: time 18-24 hrs
Staphylococcus aureus [6] = test: Antibacterial activity against methicillin-resistant Staphylococcus aureus NRS 119 assessed as reduction in bacterial growth measured after 18 to 24 hrs by broth microdilution method; type: functional; conditions: time 18-24 hrs
Staphylococcus aureus [7] = test: Antibacterial activity against methicillin-resistant Staphylococcus aureus NRS 129 assessed as reduction in bacterial growth measured after 18 to 24 hrs by broth microdilution method; type: functional; conditions: time 18-24 hrs
Staphylococcus aureus [8] = test: Antibacterial activity against methicillin-resistant Staphylococcus aureus NRS 186 assessed as reduction in bacterial growth measured after 18 to 24 hrs by broth microdilution method; type: functional; conditions: time 18-24 hrs
Staphylococcus aureus [9] = test: Antibacterial activity against methicillin-resistant Staphylococcus aureus NRS 191 assessed as reduction in bacterial growth measured after 18 to 24 hrs by broth microdilution method; type: functional; conditions: time 18-24 hrs
Staphylococcus aureus [10] = test: Antibacterial activity against methicillin-resistant Staphylococcus aureus NRS 192 assessed as reduction in bacterial growth measured after 18 to 24 hrs by broth microdilution method; type: functional; conditions: time 18-24 hrs
Staphylococcus aureus [11] = test: Antibacterial activity against methicillin-resistant Staphylococcus aureus NRS 193 assessed as reduction in bacterial growth measured after 18 to 24 hrs by broth microdilution method; type: functional; conditions: time 18-24 hrs
Staphylococcus aureus [12] = test: Antibacterial activity against methicillin-resistant Staphylococcus aureus NRS 194 assessed as reduction in bacterial growth measured after 18 to 24 hrs by broth microdilution method; type: functional; conditions: time 18-24 hrs
Staphylococcus aureus [13] = test: Antibacterial activity against methicillin-resistant Staphylococcus aureus NRS 198 assessed as reduction in bacterial growth measured after 18 to 24 hrs by broth microdilution method; type: functional; conditions: time 18-24 hrs
Staphylococcus aureus [14] = test: Antibacterial activity against vacomycin-resistant Staphylococcus aureus VRS 1 assessed as reduction in bacterial growth measured after 18 to 24 hrs by broth microdilution method; type: functional; conditions: time 18-24 hrs
Staphylococcus aureus [15] = test: Antibacterial activity against vacomycin-resistant Staphylococcus aureus VRS 4 assessed as reduction in bacterial growth measured after 18 to 24 hrs by broth microdilution method; type: functional; conditions: time 18-24 hrs
Staphylococcus aureus [16] = test: Antibacterial activity against vacomycin-resistant Staphylococcus aureus VRS 12 assessed as reduction in bacterial growth measured after 18 to 24 hrs by broth microdilution method; type: functional; conditions: time 18-24 hrs
[17] = Hemolytic activity in human Red blood cell at 32 ug/ml measured after 1 hrs by spectrophotometric analysis relative to control; type: toxicity, cell-based, Erythrocyte; conditions: red blood cells, at 32 µg/mL, read-out: Activity
HEK293 [18] = test: Cytotoxicity against HEK293 cells assessed as cell viability at 1 times MIC measured after 24 hrs by Calcein-AM/PI staining based fluorescence microscopy analysis; type: toxicity; conditions: human, hek293, 24 h
HEK293 [19] = test: Cytotoxicity against HEK293 cells assessed as cell viability measured after 72 hrs by MTT assay; type: toxicity, cell-based; conditions: human, hek293, 72 h
Staphylococcus aureus [20] = test: Inhibition of biofilm in Staphylococcus aureus ATCC 29213 at 1 times MIC measured after 12 hrs by crystal violet staining based analysis relative to control; type: functional
Staphylococcus aureus [21] = test: Inhibition of biofilm in Staphylococcus aureus ATCC 29213 at 0.5 times MIC measured after 12 hrs by crystal violet staining based analysis relative to control; type: functional
Staphylococcus aureus [22] = test: Inhibition of biofilm in Staphylococcus aureus ATCC 29213 at 2 times MIC measured after 12 hrs by crystal violet staining based analysis relative to control; type: functional
Staphylococcus aureus [23] = test: Inhibition of biofilm in Staphylococcus aureus ATCC 29213 at 2 ug/ml measured after 12 hrs by crystal violet staining based analysis; type: functional, organism-based; conditions: dose 2.0 µg/ml
Staphylococcus aureus [24] = test: Antibacterial activity against Staphylococcus aureus ATCC 29213 measured after 20 passages; type: functional, organism-based
Cell membrane [25] = test: Disruption of cell membrane in Staphylococcus aureus ATCC 29213 assessed as increase in red fluorescence at 5 to 10 times MIC measured after 4 hrs by DAPI and PI staining based fluorescence microscopic analysis
Cell membrane [26] = test: Disruption of cell membrane in Staphylococcus aureus ATCC 29213 assessed as increase in PI uptake at 10 times MIC measured after 8 mins by fluorescence based microplate reader analysis
Staphylococcus aureus [27] = test: Induction of morphological changes in Staphylococcus aureus ATCC 29213 assessed as cell shrinkage at 10 times MIC measured after 4 hrs by atomic force microscopy based analysis (reference value: 60.170 nanometer); type: functional
Staphylococcus aureus [28] = test: Induction of morphological changes in Staphylococcus aureus ATCC 29213 assessed as cell shrinkage by measuring cells height at 10 times MIC measured after 4 hrs by atomic force microscopy based analysis (reference value: 170.8 nanometer); type: functional
Staphylococcus aureus [29] = test: Induction of morphological changes in Staphylococcus aureus ATCC 29213 assessed as cell shrinkage by measuring cells diameter at 10 times MIC measured after 4 hrs by atomic force microscopy based analysis (reference value: 1.017 micrometer); type: functional
Staphylococcus aureus [30] = test: Induction of morphological changes in Staphylococcus aureus ATCC 29213 assessed as cell deformation at 2 to 10 times MIC measured after 4 hrs by Scanning electron microscopy based analysis; type: functional, organism-based
Staphylococcus aureus [31] = test: Induction of morphological changes in Staphylococcus aureus ATCC 29213 assessed as appearance of cell surface fold at 2 to 10 times MIC measured after 4 hrs by Scanning electron microscopy based analysis; type: functional, organism-based
Staphylococcus aureus [32] = test: Induction of morphological changes in Staphylococcus aureus ATCC 29213 assessed as cell shrinkage at 2 to 10 times MIC measured after 4 hrs by Scanning electron microscopy based analysis; type: functional, organism-based
Staphylococcus aureus [33] = test: Induction of morphological changes in Staphylococcus aureus ATCC 29213 assessed as accumulation of cellular debris at 2 to 10 times MIC measured after 4 hrs by Scanning electron microscopy based analysis; type: functional, organism-based
Staphylococcus aureus [34] = test: Induction of morphological changes in Staphylococcus aureus ATCC 29213 assessed as leakage of subcellular components at 2 to 10 times MIC measured after 4 hrs by Scanning electron microscopy based analysis; type: functional, organism-based
Staphylococcus aureus [35] = test: Synergistic antibacterial activity against Staphylococcus aureus ATCC 29213 assessed as fractional inhibitory concentration index in presence of vancomycin by checkerboard assay; type: functional
Staphylococcus aureus [36] = test: Synergistic antibacterial activity against Staphylococcus aureus ATCC 29213 assessed as fractional inhibitory concentration index in presence of levofloxacin by checkerboard assay; type: functional
[37] = target: T1, UDP-N-acetylenolpyruvoylglucosamine reductase (Staphylococcus aureus, UniProt P61431); test: Binding affinity to Staphylococcus aureus MurB assessed as inhibition constant
T1 sequence (P61431 whole entry): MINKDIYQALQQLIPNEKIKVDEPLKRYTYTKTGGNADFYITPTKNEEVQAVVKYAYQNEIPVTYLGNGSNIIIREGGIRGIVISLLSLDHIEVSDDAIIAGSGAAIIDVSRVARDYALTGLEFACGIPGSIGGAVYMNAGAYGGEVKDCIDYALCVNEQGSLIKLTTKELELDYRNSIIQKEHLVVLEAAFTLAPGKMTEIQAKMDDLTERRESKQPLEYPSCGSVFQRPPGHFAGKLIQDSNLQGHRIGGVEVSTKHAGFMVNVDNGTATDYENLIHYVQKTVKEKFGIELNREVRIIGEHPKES

[38] = Binding affinity to Staphylococcus aureus MurA assessed as inhibition constant
[39] = Binding affinity to Staphylococcus aureus MurZ assessed as inhibition constant
Staphylococcus aureus [40] = test: Drug resistance, ratio of MIC for Staphylococcus aureus ATCC 29213 after 20 passages exposure to MIC for Staphylococcus aureus ATCC 29213 during first exposure; type: functional

## CC(C)(C)c1cc(C(c2ccccc2)c2ccccc2)c(NC(=O)c2cccc(C(=O)O)c2)c(C(c2ccccc2)c2ccccc2)c1
Enterococcus faecalis
  MIC: 1 µg/mL (≈ 0.00159 mM)
Bacillus subtilis
  MIC: 1 µg/mL (≈ 0.00159 mM)
Staphylococcus aureus [1]
  MIC: 2 µg/mL (≈ 0.00318 mM)
Klebsiella pneumoniae
  MIC: > 64 µg/mL
Acinetobacter baumannii
  MIC: > 64 µg/mL
Pseudomonas aeruginosa
  MIC: > 64 µg/mL
Escherichia coli
  MIC: > 64 µg/mL
[2]
  solubility: Insoluble
[3]
  solubility: 660 mg/mL (≈ 1050 mM)
Staphylococcus aureus [4]
  MIC: 4 µg/mL (≈ 0.00635 mM)
Staphylococcus aureus [5]
  MIC: 4 µg/mL (≈ 0.00635 mM)
Staphylococcus aureus [6]
  MIC: 4 µg/mL (≈ 0.00635 mM)
Staphylococcus aureus [7]
  MIC: 4 µg/mL (≈ 0.00635 mM)
Staphylococcus aureus [8]
  MIC: 4 µg/mL (≈ 0.00635 mM)
Staphylococcus aureus [9]
  MIC: 4 µg/mL (≈ 0.00635 mM)
Staphylococcus aureus [10]
  MIC: 4 µg/mL (≈ 0.00635 mM)
Staphylococcus aureus [11]
  MIC: 4 µg/mL (≈ 0.00635 mM)
Staphylococcus aureus [12]
  MIC: 4 µg/mL (≈ 0.00635 mM)
Staphylococcus aureus [13]
  MIC: 4 µg/mL (≈ 0.00635 mM)
Staphylococcus aureus [14]
  MIC: 4 µg/mL (≈ 0.00635 mM)
Staphylococcus aureus [15]
  MIC: 4 µg/mL (≈ 0.00635 mM)
Staphylococcus aureus [16]
  MIC: 4 µg/mL (≈ 0.00635 mM)
[17]
  hemolysis at 1 h, 32 ug/ml: ~25%
HEK293 [18]
  Activity: Toxic
HEK293 [19]
  Activity: Toxic
Staphylococcus aureus [20]
  inhibition (INH): 95%
Staphylococcus aureus [21]
  inhibition (INH): >50%
Staphylococcus aureus [22]
  inhibition (INH): 95%
Staphylococcus aureus [23]
  inhibition: Active
Staphylococcus aureus [24]
  Activity: Active
Cell membrane [25]
  Activity: Active
Cell membrane [26]
  Activity: Active
Staphylococcus aureus [27]
  Activity: 53.464 nm
Staphylococcus aureus [28]
  Activity: 105.1 nm
Staphylococcus aureus [29]
  Activity: 0.68 um
Staphylococcus aureus [30]
  Activity: Active
Staphylococcus aureus [31]
  Activity: Active
Staphylococcus aureus [32]
  Activity: Active
Staphylococcus aureus [33]
  Activity: Active
Staphylococcus aureus [34]
  Activity: Active
Staphylococcus aureus [35]
  fractional inhibitory concentration index (FICI): 0.258
Staphylococcus aureus [36]
  fractional inhibitory concentration index (FICI): 0.75
[37]
  Ki: 2.52 µM
[38]
  Ki: 117 µM
[39]
  Ki: 133 µM

## CCn1cc(C(=O)O)c(=O)c2cc(F)c(N3CCNCC3)cc21 [NORFLOXACIN]
Staphylococcus aureus [40]
  Ratio: 64
